This assay addresses T1, crosslinked smooth muscle actomyosin (chicken gizzard smooth muscle myosin subfragment-1 crosslinked to cardiac or skeletal actin) (Gallus gallus, UniProt P10587).
T1 construct: chicken gizzard smooth muscle myosin subfragment-1; from tissue; host or cells: chicken gizzard
As to the kind of experiment: Lead optimization pyruvate kinase/horseradish peroxidase/pyruvate oxidase-coupled ATPase assay (compound dose response). The assay is classed as biochemical. Particulars: read-out: IC50 Arithmetic Mean. An outline of the steps: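 The ATPase used chicken gizzard smooth muscle myosin S1 chemically crosslinked to cardiac or skeletal actin, titrated to a set hydrolysis rate. It was coupled via pyruvate kinase/pyruvate oxidase/HRP in 12 mM K-PIPES pH 7.00 (22 °C) with 0.15 mM ATP, 2 mM MgCl2, 100 mM KCl and 0.1 mM Amplex Red. Fluorescence was read at ex 480/em 615 nm, and IC50 came from a 4-parameter fit.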

The IC50 is the point on the concentration scale where inhibition reaches its midpoint.

Consider `O=C(Nc1ccc(C(F)(F)F)cc1)OCC1(C(=O)NCc2ccccc2Cl)CCN(C(=O)CO)CC1` [N-[(2-chlorophenyl)methyl][1-(2-hydroxyacetyl)-4-({N-[4-(trifluoromethyl)phenyl]carbamoyloxy}methyl)(4-piperidyl)]carboxamide], for which the IC50 is 456 nM.

In the case of `CCc1ccc(NC(=O)NCC2CCCN2C(=O)NCc2ccccc2Cl)cc1` (stereo not shown) [N-[(2-chlorophenyl)methyl][2-({[(4-ethylphenyl)amino]carbonylamino}methyl)pyrrolidinyl]carboxamide], the IC50 turned out to be 2620 nM.

For the compound `Cc1nc(-c2ccc(NC(=O)OCC3(C(=O)NCc4ccccc4Cl)CCOCC3)cc2)cs1` [N-[(2-chlorophenyl)methyl][4-({N-[4-(2-methyl(1,3-thiazol-4-yl))phenyl]carbamoyloxy}methyl)(2H-3,4,5,6-tetrahydropyran-4-yl)]carboxamide], the IC50 is 3920 nM.

As for `CC(O)c1ccc(NC(=O)OCC2(C(=O)NCc3ccccc3Cl)CCOCC2)cc1` (stereo not shown) [N-[(2-chlorophenyl)methyl][4-({N-[4-(hydroxyethyl)phenyl]carbamoyloxy}methyl)(2H-3,4,5,6-tetrahydropyran-4-yl)]carboxamide], the IC50 is 5230 nM.

Take `CC(C)c1ccc(NC(=O)OCC2(C(=O)NCc3ccccc3Cl)CCOCC2)cc1` [N-[(2-chlorophenyl)methyl][4-({N-[4-(methylethyl)phenyl]carbamoyloxy}methyl)(2H-3,4,5,6-tetrahydropyran-4-yl)]carboxamide]: the IC50 came to 498 nM.

Take `O=C(Nc1ccc(C(F)(F)F)cc1)OCC1(C(=O)NCc2ccccc2Cl)CCOCC1` [N-[(2-chlorophenyl)methyl][4-({N-[4-(trifluoromethyl)phenyl]carbamoyloxy}methyl)(2H-3,4,5,6-tetrahydropyran-4-yl)]carboxamide]: the IC50 is 1140 nM.

On to `O=C(Nc1ccc(C(F)(F)F)cc1)OCC1(C(=O)NCc2ccccc2Cl)CCNCC1` [N-[(2-chlorophenyl)methyl][4-({N-[4-(trifluoromethyl)phenyl]carbamoyloxy}methyl)(4-piperidyl)]carboxamide], for which the half-maximal inhibitory concentration (IC50) was 5940 nM.

With `Cc1ccc(NC(=O)OCC2(C(=O)NCc3ccccc3Cl)CCOCC2)cc1C(F)(F)F` [N-[(2-chlorophenyl)methyl][4-({N-[4-methyl-3-(trifluoromethyl)phenyl]carbamoyloxy}methyl)(2H-3,4,5,6-tetrahydropyran-4-yl)]carboxamide], the IC50 worked out at 12100 nM.

As for `CCc1ccc(NC(=O)N(C)CC2(C(=O)NCc3ccccc3Cl)CCN(C(=O)CO)CC2)cc1` [N-[(2-chlorophenyl)methyl][4-({[(4-ethylphenyl)amino]-N-methylcarbonylamino}methyl)-1-(2-hydroxyacetyl)(4-piperidyl)]carboxamide], the IC50 was 18700 nM.

Take `CCc1ccc(NC(=O)NCC2(C(=O)NCc3ccccc3Cl)CCNCC2)cc1` [N-[(2-chlorophenyl)methyl][4-({[(4-ethylphenyl)amino]carbonylamino}methyl)(4-piperidyl)]carboxamide]: the IC50 was determined as 18200 nM.

As for `CCc1ccc(NC(=O)NCC2(C(=O)NCc3ccccc3Cl)CCN(C(=O)CO)CC2)cc1` [N-[(2-chlorophenyl)methyl][4-({[(4-ethylphenyl)amino]carbonylamino}methyl)-1-(2-hydroxyacetyl)(4-piperidyl)]carboxamide], the IC50 was determined as 1880 nM.

Regarding `CCc1ccc(NC(=O)OC2CCCN(C(=O)NCc3ccccc3Cl)C2)cc1` (stereo not shown) [N-[(2-chlorophenyl)methyl]{3-[N-(4-ethylphenyl)carbamoyloxy]piperidyl}carboxamide], the IC50 came to 2260 nM.

Consider `O=C(Nc1ccc2c(c1)CCC2)OCC1(C(=O)NCc2ccccc2Cl)CCOCC1` [N-[(2-chlorophenyl)methyl]{4-[(N-indan-5-ylcarbamoyloxy)methyl](2H-3,4,5,6-tetrahydropyran-4-yl)}carboxamide], for which the IC50 was 361 nM.

For the compound `O=C(Nc1ccccc1)OCC1(C(=O)NCc2ccccc2Cl)CCOCC1` [N-[(2-chlorophenyl)methyl]{4-[(N-phenylcarbamoyloxy)methyl](2H-3,4,5,6-tetrahydropyran-4-yl)}carboxamide], the IC50 was determined as 15200 nM.

`CCc1ccc(CC(=O)NCC2(C(=O)NCc3ccccc3Cl)CC2)cc1` [N-[({N-[(2-chlorophenyl)methyl]carbamoyl}cyclopropyl)methyl]-2-(4-ethylphenyl)acetamide]: the IC50 is 18200 nM.

Turning to `CCc1ccc(NC(=O)NCC2(C(=O)NCc3ccccc3Cl)CC2)cc1` [N-[({N-[(2-chlorophenyl)methyl]carbamoyl}cyclopropyl)methyl][(4-ethylphenyl)amino]carboxamide], the IC50 was determined as 5230 nM.

Turning to `CCc1ccc(NC(=O)OCCN(C)C(=O)C(O)Cc2ccccc2C(F)(F)F)cc1` (stereo not shown) [N-{2-[N-(4-ethylphenyl)carbamoyloxy]ethyl}-2-hydroxy-N-methyl-3-[2-(trifluoromethyl)phenyl]propanamide], the IC50 is 17500 nM.

In the case of `CCc1ccc(NC(=O)OCCN(C)C(=O)CCc2ccccc2C(F)(F)F)cc1` [N-{2-[N-(4-ethylphenyl)carbamoyloxy]ethyl}-N-methyl-3-[2-(trifluoromethyl)phenyl]propanamide], the IC50 came out at 1210 nM.

`CCc1ccc(NC(=O)OCCNC(C)=O)cc1` [N-{2-[N-(4-ethylphenyl)carbamoyloxy]ethyl}acetamide]: the IC50 worked out at 17400 nM.

Regarding `CCc1ccc(NC(=O)OC[C@H](C)N(C)C(=O)NCc2ccccc2Cl)cc1` [N-{(1S)-2-[N-(4-ethylphenyl)carbamoyloxy]-isopropyl}{[(2-chlorophenyl)methyl]amino}-N-methylcarboxamide], the IC50 was found to be 148 nM.

With `CCc1ccc(NC(=O)OC[C@H](C)NC(=O)NCc2ccccc2Cl)cc1` [N-{(1S)-2-[N-(4-ethylphenyl)carbamoyloxy]-isopropyl}{[(2-chlorophenyl)methyl]amino}carboxamide], the IC50 was determined as 1630 nM.

Regarding `CCc1ccc(NC(=O)OCC[C@H](C)N(C)C(=O)NCc2ccccc2Cl)cc1` [N-{(1S)-3-[N-(4-ethylphenyl)carbamoyloxy]-1-methylpropyl}{[(2-chlorophenyl)methyl]amino}-N-methylcarboxamide], the IC50 was 198 nM.

Turning to `NCC(=O)N1CCC(COC(=O)Nc2ccc(C(F)(F)F)cc2Cl)(C(=O)NCc2ccccc2Cl)CC1` [[1-(2-aminoacetyl)-4-({N-[2-chloro-4-(trifluoromethyl)phenyl]carbamoyloxy}methyl)(4-piperidyl)]-N-[(2-chlorophenyl)methyl]carboxamide], the IC50 amounted to 440 nM.

As to `NCC(=O)N1CCC(COC(=O)Nc2ccc(C(F)(F)F)cc2)(C(=O)NCc2ccccc2Cl)CC1` [[1-(2-aminoacetyl)-4-({N-[4-(trifluoromethyl)phenyl]carbamoyloxy}methyl)(4-piperidyl)]-N-[(2-chlorophenyl)methyl]carboxamide], the IC50 turned out to be 285 nM.

Consider `N#Cc1ccccc1CNC(=O)C1(COC(=O)Nc2ccc(C(F)(F)F)cc2)CCN(C(=O)CN)CC1` [[1-(2-aminoacetyl)-4-({N-[4-(trifluoromethyl)phenyl]carbamoyloxy}methyl)(4-piperidyl)]-N-[(2-cyanophenyl)methyl]carboxamide], for which the IC50 was found to be 3240 nM.

On to `Cc1ccc(NC(=O)OCC2(C(=O)NCc3ccccc3Cl)CCN(C(=O)CN)CC2)cc1C(F)(F)F` [[1-(2-aminoacetyl)-4-({N-[4-methyl-3-(trifluoromethyl)phenyl]carbamoyloxy}methyl)(4-piperidyl)]-N-[(2-chlorophenyl)methyl]carboxamide], for which the IC50 came to 1970 nM.

Regarding `N[C@@H](CO)C(=O)N1CCC(COC(=O)Nc2ccc(C(F)(F)F)cc2)(C(=O)NCc2ccccc2Cl)CC1` [[1-((2S)-2-amino-3-hydroxypropanoyl)-4-({N-[4-(trifluoromethyl)phenyl]carbamoyloxy}methyl)(4-piperidyl)]-N-[(2-chlorophenyl)methyl]carboxamide], the IC50 is 138 nM.

For the compound `CCc1ccc(NC(=O)OCCN(CCCCN)C(=O)NCc2ccccc2Cl)cc1` [[2-(N-(4-aminobutyl){[(2-chlorophenyl)methyl]amino}carbonylamino)ethoxy]-N-(4-ethylphenyl)carboxamide], the IC50 is 346 nM.

As for `CCc1ccc(NC(=O)OCCN(CCO)C(=O)NCc2ccccc2Cl)cc1` [[2-({[(2-chlorophenyl)methyl]amino}-N-(2-hydroxyethyl)carbonylamino)ethoxy]-N-(4-ethylphenyl)carboxamide], the IC50 was 210 nM.

Turning to `CCc1ccc(NC(=O)OC(C)CN(C)C(=O)NCc2ccccc2Cl)cc1` (stereo not shown) [[2-({[(2-chlorophenyl)methyl]amino}-N-methylcarbonylamino)-isopropoxy]-N-(4-ethylphenyl)carboxamide], the IC50 was 8520 nM.

Turning to `CCc1ccc(NC(=O)OCC2(C(=O)NCc3cccc(Cl)c3Cl)CCN(C(=O)CN)CC2)cc1` [[(1-(2-aminoacetyl)-4-{N-[(2,3-dichlorophenyl)methyl]carbamoyl}(4-piperidyl))methoxy]-N-(4-ethylphenyl)carboxamide], the IC50 turned out to be 88 nM.

On to `NCC(=O)N1CCC(COC(=O)Nc2ccc(C(F)(F)F)cc2)(C(=O)NCc2cccc(Cl)c2Cl)CC1` [[(1-(2-aminoacetyl)-4-{N-[(2,3-dichlorophenyl)methyl]carbamoyl}(4-piperidyl))methoxy]-N-[4-(trifluoromethyl)phenyl]carboxamide], for which the IC50 came out at 284 nM.

For the compound `CCc1ccc(NC(=O)OCC2(C(=O)NCc3cccc(F)c3F)CCN(C(=O)CN)CC2)cc1` [[(1-(2-aminoacetyl)-4-{N-[(2,3-difluorophenyl)methyl]carbamoyl}(4-piperidyl))methoxy]-N-(4-ethylphenyl)carboxamide], the IC50 was determined as 164 nM.

`CCc1ccc(NC(=O)OCC2(C(=O)NCc3ccc(Cl)cc3Cl)CCN(C(=O)CN)CC2)cc1` [[(1-(2-aminoacetyl)-4-{N-[(2,4-dichlorophenyl)methyl]carbamoyl}(4-piperidyl))methoxy]-N-(4-ethylphenyl)carboxamide]: the IC50 was 197 nM.

The values above are taken from US8071625B2, “Certain chemical entities, compositions, and methods” (Cytokinetics, Inc., priority 2006, dated 2011).
